These results are taken from patent US20250114374A1, “BCL-2 INHIBITORS” (Newave Pharmaceutical Inc., priority 2021, published 2025).

One experiment has as its system RS4; 11 with G101V mutation. In words: In vitro anti-proliferation assay (ATPlite luminescence) in BCL-2-dependent ALL cell line RS4;11 with G101V mutation. The experiment is classed as cell-based. Conditions: Homo sapiens, RS4-11, 72 h; read-out: RS411-G101V IC50. Here is the method: Cell antiproliferation was assayed by PerkinElmer ATPlite™ Luminescence Assay System. Briefly, the various test cancer cell lines were plated at a density of about 1×10^4 cells per well in Costar 96-well plates, and were incubated with different concentrations of compounds for about 72 hours in medium supplemented with 10% FBS. One lyophilized substrate solution vial was then reconstituted by adding 5 mL of substrate buffer solution, and was agitated gently until the solution was homogeneous. About 50 μL of mammalian cell lysis solution was added to 100 μL of cell suspension per well of a microplate, and the plate was shaken for about five minutes in an orbital shaker at ˜700 rpm. This procedure was used to lyse the cells and to stabilize the ATP. Next, 50 μL substrate solution was added to the wells and microplate was shaken for five minutes in an orbital shaker at ˜700 rpm. Finally, the luminescence was measured by a PerkinElmer TopCount® Microplate Scintillation Counter. Such assays, carried out with a range of doses of test compounds, allowed the determination of the cellular anti-antiproliferative IC50 of the compounds of the present invention.
The following table lists the IC50 values of another study for certain compounds of the invention.
As to `Cc1ccccc1[C@@H]1CN([C@@H]2CCCOC2)CCN1C1CC2(CCN(c3ccc(C(=O)NS(=O)(=O)c4cc5c(c([N+](=O)[O-])c4)N[C@H](C4CCOCC4)CO5)c(N4c5cc6cc[nH]c6nc5O[C@H]5COCC[C@@H]54)c3)CC2)C1` [Example 178, N—(((R)-5-nitro-3-(tetrahydro-2H-pyran-4-yl)-3,4-dihydro-2H-benzo[b][1,4]oxazin-7-yl)sulfonyl)-2-((5aS,9aR)-6,7,9,9a-tetrahydro-1H-pyrano[3,4-b]pyrrolo[3′,2′:5,6]pyrido[3,2-e][1,4]oxazin-5(5aH)-yl)-4-(2-((R)-4-((R)-tetrahydro-2H-pyran-3-yl)-2-(o-tolyl)piperazin-1-yl)-7-azaspiro[3.5]nonan-7-yl)benzamide], the IC50 stood at 40.9 nM.

Still in this experiment, the particulars now being: cellular anti-proliferative IC50, about 72 hours, medium with 10% FBS, ATPlite; read-out: RS411-G101V IC50.
As to `COc1ncc(CN2CCN(C3CC4(CCN(c5ccc(C(=O)NS(=O)(=O)c6ccc(NCC7CCC(C)(O)CC7)c([N+](=O)[O-])c6)c(N6c7cc8cc[nH]c8nc7O[C@H]7COCC[C@@H]76)c5)CC4)C3)[C@@H](c3ccccc3OC(C)C)C2)cc1C` (stereo partly drawn) [Example 158, N-((4-((((1r,4r)-4-hydroxy-4-methylcyclohexyl)methyl)amino)-3-nitrophenyl)sulfonyl)-4-(2-((S)-2-(2-isopropoxyphenyl)-4-((6-methoxy-5-methylpyridin-3-yl)methyl)piperazin-1-yl)-7-azaspiro[3.5]nonan-7-yl)-2-((5aS,9aR)-6,7,9,9a-tetrahydro-1H-pyrano[3,4-b]pyrrolo[3′,2′:5,6]pyrido[3,2-e][1,4]oxazin-5(5aH)-yl)benzamide], the IC50 was 21.2 nM.
The same measure, in the same setting: the same measure for `COc1cc(CN2CCN(C3CC4(CCN(c5ccc(C(=O)NS(=O)(=O)c6ccc(NCC7CCC(C)(O)CC7)c([N+](=O)[O-])c6)c(N6c7cc8cc[nH]c8nc7O[C@H]7COCC[C@@H]76)c5)CC4)C3)[C@H](c3ccccc3C)C2)cnc1N1CCOCC1` (stereo partly drawn) [Example 124, N-((4-((((1r,4r)-4-hydroxy-4-methylcyclohexyl)methyl)amino)-3-nitrophenyl)sulfonyl)-4-(2-((R)-4-((5-(methoxy-d3)-6-morpholinopyridin-3-yl)methyl)-2-(o-tolyl)piperazin-1-yl)-7-azaspiro[3.5]nonan-7-yl)-2-((5aS,9aR)-6,7,9,9a-tetrahydro-1H-pyrano[3,4-b]pyrrolo[3′,2′:5,6]pyrido[3,2-e][1,4]oxazin-5(5aH)-yl)benzamide]: 2 nM.
Still for that read-out and setting: the same measure for `CC(C)Oc1ccccc1[C@@H]1CN([C@H]2CCOc3cc(F)c(F)cc32)CCN1C1CC2(CCN(c3ccc(C(=O)NS(=O)(=O)c4cc5c(c([N+](=O)[O-])c4)N[C@H](C4CCOCC4)CO5)c(N4c5cc6cc[nH]c6nc5O[C@H]5COCC[C@@H]54)c3)CC2)C1` [Example 210, 4-{2-[(2R)-4-[(4S)-6,7-difluoro-3,4-dihydro-2H-1-benzopyran-4-yl]-2-(2-isopropoxyphenyl)piperazin-1-yl]-7-azaspiro[3.5]nonan-7-yl}-2-[(3R,8S)-2,5-dioxa-9,15,17-triazatetracyclo[8.7.0.0^{3,8}.0^{12,16}]heptadeca-1(10),11,13,16-tetraen-9-yl]-N-[(3R)-5-nitro-3-(oxan-4-yl)-3,4-dihydro-2H-1,4-benzoxazin-7-ylsulfonyl]benzamide]: 37.8 nM; for `COc1cc(CN2CCN(C3CC4(CCN(c5ccc(C(=O)NS(=O)(=O)c6ccc(NCC7CCOCC7)c([N+](=O)[O-])c6)c(N6c7cc8cc[nH]c8nc7O[C@H]7COCC[C@@H]76)c5)CC4)C3)[C@@H](c3ccccc3OC(C)C)C2)cnc1N1CCOCC1` [Example 131, 2-[(3R,8S)-2,5-dioxa-9,15,17-triazatetracyclo[8.7.0.0^{3,8}.0^{12,16}]heptadeca-1(10),11,13,16-tetraen-9-yl]-4-{2-[(2S)-2-(2-isopropoxyphenyl)-4-{[5-methoxy-6-(morpholin-4-yl)pyridin-3-yl]methyl}piperazin-1-yl]-7-azaspiro[3.5]nonan-7-yl}-N-{3-nitro-4-[(oxan-4-ylmethyl)amino]benzenesulfonyl}benzamide]: 34.6 nM; for `Cc1ccccc1[C@@H]1CN(Cc2ccc(N3CCOC[C@H]3C)c(F)c2)CCN1C1CC2(CCN(c3ccc(C(=O)NS(=O)(=O)c4ccc(NC[C@H]5CC[C@](C)(O)CC5)c([N+](=O)[O-])c4)c(N4c5cc6cc[nH]c6nc5O[C@H]5COCC[C@@H]54)c3)CC2)C1` [Example 155, 2-[(3R,8S)-2,5-dioxa-9,15,17-triazatetracyclo[8.7.0.0^{3,8}.0^{12,16}]heptadeca-1(10),11,13,16-tetraen-9-yl]-4-{2-[(2R)-4-({3-fluoro-4-[(3R)-3-methylmorpholin-4-yl]phenyl}methyl)-2-(2-methylphenyl)piperazin-1-yl]-7-azaspiro[3.5]nonan-7-yl}-N-[3-nitro-4-({[(1r,4r)-4-hydroxy-4-methylcyclohexyl]methyl}amino)benzenesulfonyl]benzamide]: 91.8 nM.
In the case of `Cc1cc2c(CN3CCN(C4CC5(CCN(c6ccc(C(=O)NS(=O)(=O)c7cc8c(c([N+](=O)[O-])c7)N[C@H](C7CCOCC7)CO8)c(N7c8cc9cc[nH]c9nc8O[C@H]8COCC[C@@H]87)c6)CC5)C4)[C@H](c4ccccc4C)C3)cnc(N3CCOC[C@@H]3C)c2o1` [Example 191, 2-[(3R,8S)-2,5-dioxa-9,15,17-triazatetracyclo[8.7.0.0^{3,8}.0^{12,16}]heptadeca-1(10),11,13,16-tetraen-9-yl]-4-{2-[(2R)-4-({2-methyl-7-[(3S)-3-methylmorpholin-4-yl]furo[2,3-c]pyridin-4-yl}methyl)-2-(2-methylphenyl)piperazin-1-yl]-7-azaspiro[3.5]nonan-7-yl}-N-[(3R)-5-nitro-3-(oxan-4-yl)-3,4-dihydro-2H-1,4-benzoxazin-7-ylsulfonyl]benzamide], the IC50 came to 14.2 nM.
The same measure, in the same setting: next, `CC(C)Oc1ccccc1[C@@H]1CN(Cc2ccc(N3CCOC[C@@H]3C)nc2)CCN1C1CC2(CCN(c3ccc(C(=O)NS(=O)(=O)c4cc5c(c([N+](=O)[O-])c4)N[C@H](C4CCOCC4)CO5)c(N4c5cc6cc[nH]c6nc5O[C@H]5COCC[C@@H]54)c3)CC2)C1` [Example 260, 2-[(3R,8S)-2,5-dioxa-9,15,17-triazatetracyclo[8.7.0.0^{3,8}.0^{12,16}]heptadeca-1(10),11,13,16-tetraen-9-yl]-4-{2-[(2R)-2-(2-isopropoxyphenyl)-4-({6-[(3S)-3-methylmorpholin-4-yl]pyridin-3-yl}methyl)piperazin-1-yl]-7-azaspiro[3.5]nonan-7-yl}-N-[(3R)-5-nitro-3-(oxan-4-yl)-3,4-dihydro-2H-1,4-benzoxazin-7-ylsulfonyl]benzamide]: 8.65 nM; `CC(C)Oc1ccccc1[C@H]1CN(C2CCN(C3CCOCC3)CC2)CCN1C1CC2(CCN(c3ccc(C(=O)NS(=O)(=O)c4ccc(NC[C@H]5CC[C@](C)(O)CC5)c([N+](=O)[O-])c4)c(N4c5cc6cc[nH]c6nc5O[C@H]5COCC[C@@H]54)c3)CC2)C1` [Example 162, N-((4-((((1r,4r)-4-hydroxy-4-methylcyclohexyl)methyl)amino)-3-nitrophenyl)sulfonyl)-4-(2-((S)-2-(2-isopropoxyphenyl)-4-(1-(tetrahydro-2H-pyran-4-yl)piperidin-4-yl)piperazin-1-yl)-7-azaspiro[3.5]nonan-7-yl)-2-((5aS,9aR)-6,7,9,9a-tetrahydro-1H-pyrano[3,4-b]pyrrolo[3′,2′:5,6]pyrido[3,2-e][1,4]oxazin-5(5aH)-yl)benzamide]: 49.9 nM.
